From PMC6271168, “Fumigant Toxicity of Oriental Sweetgum (Liquidambar orientalis) and Valerian (Valeriana wallichii) Essential Oils and Their Components, Including Their Acetylcholinesterase Inhibitory Activity, against Japanese Termites (Reticulitermes speratus)” (Molecules, 2014) come the findings set out here.

Molecules are shown by their SMILES. ≈ marks a conversion by molar mass, not a printed value.

By IC50 is commonly meant the midpoint of a concentration-inhibition curve. A higher IC50 goes with a need for much substance.

This experiment addresses T1, Japanese termite acetylcholinesterase (AChE).
T1 construct: gene AChE1; native; crude Triton X-100 extract (15,000 x g supernatant) of 50 whole adult termites, not purified
Kind of experiment: modified Ellman assay, […] nm, probit analysis. The note with it: acetylthiocholine iodide substrate; pH 7.8 extraction buffer; room temperature; 10 min pre-incubation; crude extract. The experiment is classed as biochemical, Reticulitermes speratus. Background: In Ellman's method for cholinesterases, released thiocholine reacts with DTNB.

`C=C/C(C)=C\CC=C(C)C` [compound 6, cis-Ocimene] yielded an IC50 of 131 µg/mL (≈ 962 µM).
